In US20240199546A1, “INHIBITORS OF SOLUTE CARRIER FAMILY 6A MEMBER 19 (SLC6A19) AND METHODS OF USE THEREOF” (Maze Therapeutics, Inc., priority 2022, published 2024) one finds IC50 data, which are given here for 27 molecules.

The target of test [1] is T1, human SLC6A19 and TMEM27 (Homo sapiens, UniProt Q695T7).
T1 construct: expressed in transfected cells
T1 sequence (Q695T7 1-634): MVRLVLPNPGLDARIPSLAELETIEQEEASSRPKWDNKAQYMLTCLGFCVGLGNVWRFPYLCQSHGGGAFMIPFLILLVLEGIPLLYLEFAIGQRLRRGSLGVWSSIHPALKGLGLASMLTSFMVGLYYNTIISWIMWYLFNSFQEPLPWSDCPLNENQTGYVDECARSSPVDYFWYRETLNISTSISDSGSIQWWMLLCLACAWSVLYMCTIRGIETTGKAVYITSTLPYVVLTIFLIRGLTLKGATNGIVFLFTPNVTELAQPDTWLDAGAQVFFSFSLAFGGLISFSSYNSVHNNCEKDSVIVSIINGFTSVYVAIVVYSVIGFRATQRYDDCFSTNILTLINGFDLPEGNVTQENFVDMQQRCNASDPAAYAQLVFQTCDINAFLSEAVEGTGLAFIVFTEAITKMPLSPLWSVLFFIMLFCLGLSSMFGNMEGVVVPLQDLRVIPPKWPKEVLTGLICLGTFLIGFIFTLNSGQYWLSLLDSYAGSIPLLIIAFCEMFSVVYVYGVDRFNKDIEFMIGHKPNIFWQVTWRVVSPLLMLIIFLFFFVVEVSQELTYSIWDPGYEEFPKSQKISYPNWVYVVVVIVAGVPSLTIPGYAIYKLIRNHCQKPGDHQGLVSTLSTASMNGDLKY
T1 sequence (Q9HBJ8 15-222 partner): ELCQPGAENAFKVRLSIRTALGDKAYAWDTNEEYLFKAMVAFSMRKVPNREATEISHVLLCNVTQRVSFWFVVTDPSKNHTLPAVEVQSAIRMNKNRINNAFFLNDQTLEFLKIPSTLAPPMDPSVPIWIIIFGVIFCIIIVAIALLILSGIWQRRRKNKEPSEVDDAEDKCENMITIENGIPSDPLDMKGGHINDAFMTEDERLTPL
The test is described as follows: 13C6,15N-isoleucine uptake in CHO cells with doxycycline-inducible expression of human SLC6A19 and TMEM27, RapidFire mass spectrometry (Example B-2). Format: cell-based. The following applies: read-out: SLC6A19_RapidFire Uptake Assay IC50. A digest of the protocol: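 Read-out is RapidFire mass-spec peak area of 13C6,15N-isoleucine taken up over 20 min at 37 °C, after 20 min compound pre-exposure in pH 7.2 HEPES-buffered saline. Cells: doxycycline-induced CHO co-expressing human SLC6A19 and TMEM27; compounds as duplicate 10-point 2-fold dilutions, positive control setting 0% activity.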

The target of test [2] is T1, human SLC6A19 and TMEM27. The test is described as follows: Radiolabelled (3H) leucine uptake in CHO cells with doxycycline-inducible expression of human SLC6A19 and TMEM27 (Example B-1). Format: cell-based. As to conditions: CHO cells with doxycycline-inducible expression of human SLC6A19 and TMEM27, read-out: SLC6A19_Radioligand Uptake Assay IC50. A digest of the protocol: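 CHO cells were induced with doxycycline for 18 h at 37 °C, washed in HBSS, then exposed to compounds for 1 h: 8-point, 3-fold dilutions in duplicate, 0.5% DMSO final. Uptake measured by scintillation counting after 2 h shaking. Activity normalized with positive control as 0% and DMSO as 100%.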

A word on the IC50: it is the concentration needed to halve the response being measured.

Each structure is given as a SMILES string.

Regarding `CC(=O)NCc1cc2cc(C)c(OCc3cscn3)cc2[nH]1` [Compound 234, N-((5-methyl-6-(thiazol-4-ylmethoxy)-1H-indol-2-yl)methyl)acetamide], the IC50 was 455 nM at human SLC6A19 and TMEM27 [1]; 360 nM on human SLC6A19 and TMEM27 [2].
For the molecule `CC1(C(=O)NCc2cc3cc(F)c(OCc4cccnc4F)cc3[nH]2)CC1` [Compound 332, N-((5-fluoro-6-((2-fluoropyridin-3-yl)methoxy)-1H-indol-2-yl)methyl)-1-methylcyclopropane-1-carboxamide], the 50% inhibitory concentration (IC50) on human SLC6A19 and TMEM27 [1] is 187 nM; at human SLC6A19 and TMEM27 [2] it was 269 nM.
For `CCC(=O)NCc1cc2cc(Cl)c(OCc3cc(C)on3)cc2[nH]1` [Compound 128, N-((5-chloro-6-((5-methylisoxazol-3-yl)methoxy)-1H-indol-2-yl)methyl)propionamide], the half-maximal inhibitory concentration (IC50) worked out at 32 nM on human SLC6A19 and TMEM27 [1]; 70 nM on human SLC6A19 and TMEM27 [2].
Regarding `CC1(C(=O)NCc2cc3cc(F)c(CCc4ccon4)cc3[nH]2)CC1` [Compound 592, N-((5-fluoro-6-(2-(isoxazol-3-yl)ethyl)-1H-indol-2-yl)methyl)-1-methylcyclopropane-1-carboxamide], the half-inhibitory concentration (IC50) is 93.1 nM at human SLC6A19 and TMEM27 [1]; 163 nM at human SLC6A19 and TMEM27 [2].
For `O=C(NCc1cc2cc(Cl)c(OCc3ccon3)cc2[nH]1)C1(F)CC1` [Compound 232, N-((5-chloro-6-(isoxazol-3-ylmethoxy)-1H-indol-2-yl)methyl)-1-fluorocyclopropane-1-carboxamide], in that order: 41.2 nM and 101 nM.
For `CC1(C(=O)NCc2cc3cc(Cl)c(OCc4cccs4)cc3[nH]2)CC1` [Compound 65, N-((5-chloro-6-(thiophen-2-ylmethoxy)-1H-indol-2-yl)methyl)-1-methylcyclopropane-1-carboxamide], the IC50 came to 46 nM at human SLC6A19 and TMEM27 [1]; 152 nM at human SLC6A19 and TMEM27 [2].
On to `CC1(C(=O)NCc2cc3cc(Cl)c(OCc4ccsc4)cc3[nH]2)CC1` [Compound 25, N-((5-chloro-6-(thiophen-3-ylmethoxy)-1H-indol-2-yl)methyl)-1-methylcyclopropane-1-carboxamide], for which the IC50 at human SLC6A19 and TMEM27 [1] came to 33 nM; at human SLC6A19 and TMEM27 [2], 124 nM.
As for `Cc1cc(COc2cc3[nH]c(CNC(=O)C(C)C)cc3cc2Cl)no1` [Compound 130, N-((5-chloro-6-((5-methylisoxazol-3-yl)methoxy)-1H-indol-2-yl)methyl)isobutyramide], the IC50 at human SLC6A19 and TMEM27 [1] was 65 nM; at human SLC6A19 and TMEM27 [2] it was 85 nM.
In the case of `CCC(=O)NCc1cc2cc(F)c(OCc3cc(C)no3)cc2[nH]1` [Compound 548, N-((5-fluoro-6-((3-methylisoxazol-5-yl)methoxy)-1H-indol-2-yl)methyl)propionamide], the IC50 at human SLC6A19 and TMEM27 [1] came out at 54.5 nM; at human SLC6A19 and TMEM27 [2], 100 nM.
On to `O=C(NCc1cc2cc(F)c(NCc3ccon3)cc2[nH]1)N1CCCC1` [Compound 471, N-((5-fluoro-6-((isoxazol-3-ylmethyl)amino)-1H-indol-2-yl)methyl)pyrrolidine-1-carboxamide], for which the concentration for half-maximal inhibition (IC50) on human SLC6A19 and TMEM27 [1] worked out at 1090 nM; on human SLC6A19 and TMEM27 [2], 599 nM.
On to `Cn1ncc(COc2cc3[nH]c(CNC(=O)N4CCCC4)cc3cc2Cl)n1` [Compound 406, N-((5-chloro-6-((2-methyl-2H-1,2,3-triazol-4-yl)methoxy)-1H-indol-2-yl)methyl)pyrrolidine-1-carboxamide], for which the IC50 was determined as 172 nM on human SLC6A19 and TMEM27 [1]; 347 nM on human SLC6A19 and TMEM27 [2].
For `Cc1cc(CCc2cc3[nH]c(CNC(=O)C4(C)CC4)cc3cc2Cl)no1` [Compound 148], in that order: 31 nM and 154 nM.
`O=C(NCc1cc2cc(F)c(OCc3cscn3)cc2[nH]1)C1CCC1` [Compound 430, N-((5-fluoro-6-(thiazol-4-ylmethoxy)-1H-indol-2-yl)methyl)cyclobutanecarboxamide]: the concentration for half-maximal inhibition (IC50) at human SLC6A19 and TMEM27 [1] amounted to 68.6 nM; at human SLC6A19 and TMEM27 [2] it was 137 nM.
For `CC1(C(=O)NCc2cc3ccc(OCc4ccc(F)nc4)cc3[nH]2)CC1` [Compound 34, N-((6-((6-fluoropyridin-3-yl)methoxy)-1H-indol-2-yl)methyl)-1-methylcyclopropane-1-carboxamide] the same measures were 615 nM and 602 nM.
Consider `CC1(C(=O)NCc2cc3cc(F)c(OCc4cscn4)cc3[nH]2)CC1` [Compound 8, N-((5-fluoro-6-(thiazol-4-ylmethoxy)-1H-indol-2-yl)methyl)-1-methylcyclopropane-1-carboxamide], for which the IC50 was determined as 51 nM on human SLC6A19 and TMEM27 [1]; 119 nM at human SLC6A19 and TMEM27 [2].
With `CC1CN(C(=O)NCc2cc3cc(Cl)c(OCc4ccon4)cc3[nH]2)C1` [Compound 390, N-((5-chloro-6-(isoxazol-3-ylmethoxy)-1H-indol-2-yl)methyl)-3-methylazetidine-1-carboxamide], the concentration for half-maximal inhibition (IC50) on human SLC6A19 and TMEM27 [1] turned out to be 402 nM; at human SLC6A19 and TMEM27 [2] it was 340 nM.
As for `COc1cc2cc(CNC(=O)C3(C)CC3)[nH]c2cc1CCc1ccon1` [Compound 630, N-((6-(2-(isoxazol-3-yl)ethyl)-5-methoxy-1H-indol-2-yl)methyl)-1-methylcyclopropane-1-carboxamide], the IC50 on human SLC6A19 and TMEM27 [1] worked out at 113 nM; on human SLC6A19 and TMEM27 [2], 156 nM.
For `CC1CCCN1C(=O)NCc1cc2cc(F)c(OCc3ccon3)cc2[nH]1` (stereo not drawn) [Compound 90, N-((5-fluoro-6-(isoxazol-3-ylmethoxy)-1H-indol-2-yl)methyl)-2-methylpyrrolidine-1-carboxamide], the IC50 on human SLC6A19 and TMEM27 [1] came to 1200 nM; on human SLC6A19 and TMEM27 [2] it was 870 nM.
As to `CC1(C(=O)NCc2cc3cc(Cl)c(OCc4cccnc4F)cc3[nH]2)CC1` [Compound 30, N-((5-chloro-6-((2-fluoropyridin-3-yl)methoxy)-1H-indol-2-yl)methyl)-1-methylcyclopropane-1-carboxamide], the 50% inhibitory concentration (IC50) was 155 nM at human SLC6A19 and TMEM27 [1]; 263 nM on human SLC6A19 and TMEM27 [2].
For `CC(=O)NCc1cc2cc(Cl)c(OCc3cnn(C)n3)cc2[nH]1` [Compound 221, N-((5-chloro-6-((2-methyl-2H-1,2,3-triazol-4-yl)methoxy)-1H-indol-2-yl)methyl)acetamide] the same measures were 468 nM and 288 nM.
For the molecule `Cc1cc(COc2cc3[nH]c(CNC(=O)N4CCCC4)cc3cc2Cl)on1` [Compound 83, N-((5-chloro-6-((3-methylisoxazol-5-yl)methoxy)-1H-indol-2-yl)methyl)pyrrolidine-1-carboxamide], the concentration for half-maximal inhibition (IC50) was determined as 50 nM at human SLC6A19 and TMEM27 [1]; 100 nM at human SLC6A19 and TMEM27 [2].
With `CC(=O)NCc1cc2cc(F)c(OCc3cc(C)on3)cc2[nH]1` [Compound 205, N-((5-fluoro-6-((5-methylisoxazol-3-yl)methoxy)-1H-indol-2-yl)methyl)acetamide], the concentration for half-maximal inhibition (IC50) is 714 nM at human SLC6A19 and TMEM27 [1]; 787 nM on human SLC6A19 and TMEM27 [2].
For `CC1(C(=O)NCc2cc3ccc(OCc4cccc(F)n4)cc3[nH]2)CC1` [Compound 33, N-((6-((6-fluoropyridin-2-yl)methoxy)-1H-indol-2-yl)methyl)-1-methylcyclopropane-1-carboxamide], in that order: 221 nM and 172 nM.
For `CC1(C(=O)NCc2cc3cc(Cl)c(OCc4cnsc4)cc3[nH]2)CC1` [Compound 69, N-((5-chloro-6-(isothiazol-4-ylmethoxy)-1H-indol-2-yl)methyl)-1-methylcyclopropane-1-carboxamide], the IC50 on human SLC6A19 and TMEM27 [1] is 78 nM; on human SLC6A19 and TMEM27 [2], 148 nM.
With `CC1(C(=O)NCc2cc3cc(Cl)c(OCc4cscn4)c(Cl)c3[nH]2)CC1` [Compound 344, N-((5,7-dichloro-6-(thiazol-4-ylmethoxy)-1H-indol-2-yl)methyl)-1-methylcyclopropane-1-carboxamide], the IC50 is more than 50000 nM on human SLC6A19 and TMEM27 [1]; 3910 nM on human SLC6A19 and TMEM27 [2].
In the case of `CC1(C(=O)NCc2cc3cc(Cl)c(OCc4cc5ccccn5n4)cc3[nH]2)CC1` [Compound 392, N-((5-chloro-6-(pyrazolo[1,5-a]pyridin-2-ylmethoxy)-1H-indol-2-yl)methyl)-1-methylcyclopropane-1-carboxamide], the concentration for half-maximal inhibition (IC50) on human SLC6A19 and TMEM27 [1] was determined as 1620 nM; on human SLC6A19 and TMEM27 [2], 2830 nM.
For `CN(Cc1cn[nH]c1)C(=O)NCc1cc2ccc(OCc3cscn3)cc2[nH]1` [Compound 628, 1-((1H-pyrazol-4-yl)methyl)-1-methyl-3-((6-(thiazol-4-ylmethoxy)-1H-indol-2-yl)methyl)urea], in that order: 3020 nM and 2670 nM.
